Measured values taken from patent US7579356B2, “Thia-tetraazaacenaphthylene kinase inhibitors” (Janssen Pharmaceutica NV, priority 2005, dated 2009).
“And” between values parts separate entries of the source, which are not always exact repeats. Equal values may be shown once.

Tests used:
[1] = target: T1, EGFR (Homo sapiens, UniProt P00533); test: EGFR Kinase Assay; format: biochemical; conditions: for IC50: GST-EGFR, ATP 5 μM
T1 construct: The intracellular portion of EGFR started at nucleotide 2189 (corresponding to amino acid 667) and ended at the termination codon; made in house; host or cells: Sf9 insect cells (baculovirus)
T1 sequence (P00533 669-1210 limits assumed): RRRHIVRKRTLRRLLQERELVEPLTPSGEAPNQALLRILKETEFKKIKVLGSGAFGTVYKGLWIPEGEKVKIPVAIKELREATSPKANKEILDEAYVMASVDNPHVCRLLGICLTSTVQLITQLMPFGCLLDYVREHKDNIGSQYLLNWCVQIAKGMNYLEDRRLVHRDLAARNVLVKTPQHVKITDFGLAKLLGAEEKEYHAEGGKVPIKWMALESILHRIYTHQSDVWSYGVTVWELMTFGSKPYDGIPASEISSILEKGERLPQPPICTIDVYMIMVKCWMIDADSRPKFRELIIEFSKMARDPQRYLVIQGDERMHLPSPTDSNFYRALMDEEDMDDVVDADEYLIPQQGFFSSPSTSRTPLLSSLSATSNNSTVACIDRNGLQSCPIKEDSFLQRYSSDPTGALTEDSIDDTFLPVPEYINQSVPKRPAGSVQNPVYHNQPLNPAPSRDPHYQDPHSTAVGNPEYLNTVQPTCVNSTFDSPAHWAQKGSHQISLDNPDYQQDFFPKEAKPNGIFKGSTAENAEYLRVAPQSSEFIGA
Outline: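 GST-fused human EGFR intracellular domain (from aa 667), Sf9-expressed, phosphorylated biotinylated polyGluTyr with 5 μM ATP plus γ-33P ATP in Tris pH 8.0, MgCl2, vanadate, 1 mM DTT, 1 h at 30 °C. Streptavidin Flashplate scintillation read; triplicate 16-point half-log series from 200 uM; IC50 from % inhibition vs log concentration, else % inhibition at 2 μM.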

[2] = target: T2, HER-2 (Homo sapiens, UniProt P04626); test: HER-2 Kinase Assay; format: biochemical; conditions: for inhibition at 1 µM: test concentration of 1 μM; for IC50: value in parentheses
T2 construct: His6 with thrombin site (N); purchased Proqinase (Freiburg, Germany)
T2 sequence (P04626 679-1255): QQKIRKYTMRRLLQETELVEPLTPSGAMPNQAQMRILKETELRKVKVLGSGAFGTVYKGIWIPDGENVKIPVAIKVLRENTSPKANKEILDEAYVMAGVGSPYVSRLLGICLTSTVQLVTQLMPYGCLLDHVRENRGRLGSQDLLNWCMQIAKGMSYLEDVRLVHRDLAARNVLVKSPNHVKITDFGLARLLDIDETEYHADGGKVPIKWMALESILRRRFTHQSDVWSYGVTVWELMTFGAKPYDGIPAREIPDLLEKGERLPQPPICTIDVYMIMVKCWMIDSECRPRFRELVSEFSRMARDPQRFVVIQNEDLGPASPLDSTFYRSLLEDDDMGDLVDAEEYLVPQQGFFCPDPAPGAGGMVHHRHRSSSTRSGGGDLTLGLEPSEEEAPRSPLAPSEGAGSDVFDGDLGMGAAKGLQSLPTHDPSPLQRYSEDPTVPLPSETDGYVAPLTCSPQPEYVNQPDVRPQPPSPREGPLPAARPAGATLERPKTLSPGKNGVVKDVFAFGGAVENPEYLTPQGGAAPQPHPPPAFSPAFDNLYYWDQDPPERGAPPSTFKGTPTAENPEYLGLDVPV
Outline: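 GST/HIS6-tagged HER-2 aa 679–1255 kinase with biotinylated polyGluTyr (1.5 ng/μL), 1 μM ATP plus γ-33P-ATP, Mg2+/Mn2+, DTT, Hepes pH 7.5; 1 h at 30 °C. Substrate phosphorylation captured on streptavidin scintillation plates after EDTA/PBS washes; values are % inhibition at 1 μM or IC50.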

[3] = system: BT474 breast carcinoma; test: Cell Proliferation Inhibition Assay, BT474 (14C-thymidine); format: cell-based; conditions: Homo sapiens, BT-474, C14 method
From the text: (§1) Cell Proliferation Inhibition Assay
(§2) The ability of a test compound to inhibit unregulated cell proliferation may be determined by measuring incorporation of ^14C-labelled thymidine into newly synthesized DNA within cell lines derived from carcinomas originating from several tissues. Accordingly, the effect of a test compound on proliferation of cells with a variety of phenotypes may be determined.
(§3) Carcinoma cell lines used include the HeLa cervical adenocarcinoma from the American Type Culture Collection (ATCC Cat. #CCL2), A375 malignant melanoma (ATCC Cat. #CRL-1619), HCT-116 colon carcinoma (ATCC Cat. #CCL-247), SKBR3 breast carcinoma (ATCC Cat. #HTB-30) and BT474 breast carcinoma (ATCC Cat. #HTB-20).
(§4) The carcinoma cells were trypsinized and counted. The cells (3000-8000 count) were added to each well of a 96-well CytoStar tissue culture treated scintillating microplate (Amersham #RPNQ0160) in complete medium (100 μL) and the plate was then incubated in complete medium for 24 hrs at 37° C. in an inert atmosphere containing 5% CO2.
(§5) Test compound (1 μL) in 100% DMSO was added to the plate test-wells with DMSO only added to control-wells. The plate was incubated in complete medium for a second 24 hr period at 37° C. in an atmosphere containing 5% CO2.
(§6) An aliquot of a solution of Methyl ^14C-thymidine (56 mC/mmol) (NEN #NEC568 or AMersham #CFA532) and complete medium (20 uL to provide 0.2 μCl/well) was then added to each well and the plate was incubated for a third 24 hr period at 37° C. in an atmosphere containing 5% CO2.
(§7) The plate contents were then discarded, the plate washed twice with PBS (200 μL) and then PBS (200 μL) was added to each well. The plate was sealed and the degree of methyl ^14C-thymidine incorporation was quantified on a Packard Top Count.
(§8) Cell proliferation of the Hela cell line was measured using the ATP-Lite method as described in the ATP Lite Kit (Perkin-Elmer Kit Number 6106941) or the C^14 method as described above. Cell proliferation of the other cell lines was measured using the C^14 method.

[4] = system: HeLa cervical adenocarcinoma; test: Cell Proliferation Inhibition Assay, Hela (ATP Lite); format: cell-based; conditions: Homo sapiens, ATP-Lite method
From the text: as §1, §2, §3, §4, §5, §8

[5] = system: SKBR3 breast carcinoma; test: Cell Proliferation Inhibition Assay, SKBR3 (14C-thymidine); format: cell-based; conditions: Homo sapiens, SK-BR-3, C14 method
From the text: as §1, §2, §3, §4, §5, §6, §7, §8

[6] = target: T3, HER-4 (Homo sapiens, UniProt Q15303); test: HER-4 Kinase Assay; format: biochemical
T3 construct: His6 with thrombin site (N); purchased Proqinase (Freiburg, Germany)
T3 sequence (Q15303 676-1307): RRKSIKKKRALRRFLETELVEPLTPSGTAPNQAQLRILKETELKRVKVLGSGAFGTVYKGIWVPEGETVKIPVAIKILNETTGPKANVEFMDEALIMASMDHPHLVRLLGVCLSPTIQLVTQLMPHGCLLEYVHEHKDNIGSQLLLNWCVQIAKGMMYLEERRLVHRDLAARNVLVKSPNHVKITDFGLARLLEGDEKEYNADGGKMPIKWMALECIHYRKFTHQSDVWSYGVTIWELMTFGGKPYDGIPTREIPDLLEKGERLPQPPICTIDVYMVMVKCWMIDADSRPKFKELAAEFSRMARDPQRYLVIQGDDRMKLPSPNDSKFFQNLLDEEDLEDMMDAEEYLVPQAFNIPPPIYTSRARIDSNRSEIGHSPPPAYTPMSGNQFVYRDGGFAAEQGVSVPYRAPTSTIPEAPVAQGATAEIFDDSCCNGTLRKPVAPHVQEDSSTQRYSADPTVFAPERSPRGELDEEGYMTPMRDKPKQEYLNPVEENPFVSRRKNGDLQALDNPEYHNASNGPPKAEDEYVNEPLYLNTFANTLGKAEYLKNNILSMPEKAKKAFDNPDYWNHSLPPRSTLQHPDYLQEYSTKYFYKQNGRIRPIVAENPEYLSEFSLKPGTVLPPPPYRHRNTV
Experimental: The HER-4 kinase used was purified at Proqinase (Freiburg, Germany) from a construct that consisted of a fusion of GST (Glutathione-S-Transferase), HIS6-Thrombin and the nucleotides encoding amino acids 676 to 1307 of HER-4 (Accession NM 005235).
A mixture of a 10× kinase reaction buffer (600 mM Hepes at pH 7.5, 30 mM Magnesium Chloride, 0.03 mM Sodium Vanadate and 500 μg/mL PEG 20,000), DTT (1.2 mM final from a 10 mM) stock), ATP (1 μM from a 10 mM stock), biotinylated polyGluTyr (1.5 ng/μL final from stock of 1 μg/μL) prepared by Upstate Biotechnologies, Lake Placid, N.Y.), Manganese Chloride (3 mM final from a 1 M stock), γ-^33P-ATP (10 μCl/mL stock) and water (70 μL/well) was added to each well of a Streptavidin Flashplate (Cat. # SMP103, NEN, Boston, Mass.).
Test compound stock (1 μL) was added to the appropriate wells. Diluted GST HER-4 kinase (6.7 ng/μL diluted into 50 mM Tris-HCl at pH 8.0 and 0.1% bovine serum albumin) (30 μL) was added (total volume of 200 ng/well) to initiate the reactions.
The reaction plates were incubated at 30° C. for 1 hr. The reaction was terminated by aspirating the reaction mixture from the plate wells and washing the wells three times with a 1×PBS stop buffer (300 μL) and 100 mM EDTA. After the final wash, the same stop buffer (200 μL) was again added to the wells. The plates were then sealed and read on the TopCount scintillation counter.
For a series of test concentrations, the IC50 was derived by graphing percent inhibition against the log of the concentrations tested for a given compound.

[7] = system: Human epidermoid A431 carcinoma; test: In Vivo Models - Inhibition of Tumor Growth, A431; conditions: oral daily for 30 days, athymic mice
Experimental: (§9) In Vivo Models—Inhibition of Tumor Growth
(§10) The ability of test compounds to inhibit unregulated growth of human tumor cells in vivo was evaluated by implanting human tumor cells into the hindflank of athymic mice, administering a test compound and then quantifying any change in tumor size.
(§11) Human epidermoid A431 carcinoma, N87 cells and BT474 cells were implanted subcutaneously into the hindflank of female athymic mice (Charles River) and allowed to grow for 6-10 days. After a measurable tumor was established (as determined by baseline caliper measurement), the animal was administered an oral dose of the test compound daily for a period of 30 days. Tumor size was measured every five days and the degree of inhibition was determined by comparing drug-treated animals to vehicle-treated animals.
(§12) Variations of this method are intended to include intraperitoneal injection or intravenous infusion as the route of administration and administration of the test compound either alone or in a combination therapy.
(§13) The inhibition of tumor growth values are shown in Table 8 at various test concentrations, as indicated. For compounds with multiple values at one test concentration, each value represents a separate assay result.

[8] = system: N87 cells; test: In Vivo Models - Inhibition of Tumor Growth, N87; conditions: Mus musculus, po, 720 h, oral daily for 30 days, athymic mice, read-out: percent inhibition N87
Experimental: as §9, §10, §11, §12, §13

[9] = system: BT474 cells; test: In Vivo Models - Inhibition of Tumor Growth, BT474; conditions: 100 mg/kg, oral daily for 30 days, athymic mice
Experimental: as §9, §10, §11, §12, §13

Row | SMILES | IC50 [1] [nM] | IC50 [2] [nM] | IC50 [6] [nM] | inhibition in vivo at 100 mg/kg [8] [%] | further results
1 | COc1cc(NC(=O)c2sc3ncnc4c3c2NC(=O)N4c2cccc(Br)c2)ccc1OCCN1CCCCC1 [Cpd 63, 5-(3-bromo-phenyl)-4-oxo-4,5-dihydro-3H-1-thia-3,5,6,8-tetraaza-acenaphthylene-2-carboxylic acid [3-methoxy-4-(2-piperidin-1-yl-ethoxy)-phenyl]-amide] | 104 |  |  |  | inhibition at 1 µM [2]: 45%; IC50 [3]: ≥ 10000 nM; IC50 [4]: 59000 nM; IC50 [5]: 26900 nM
2 | O=C(Nc1ccc(CN2CCCC(F)C2)cc1)c1sc2ncnc3c2c1NC(=O)N3c1ccc(Oc2ccccc2)cc1 (centres unmarked) [Cpd 234, 4-oxo-5-(4-phenoxy-phenyl)-4,5-dihydro-3H-1-thia-3,5,6,8-tetraaza-acenaphthylene-2-carboxylic acid [4-(3-fluoro-piperidin-1-ylmethyl)-phenyl]-amide] | 52 | 34 | 59 |  | 
3 | O=C(Nc1ccc(CN2CCOCC2)cc1)c1sc2ncnc3c2c1NC(=O)N3c1ccc(OCc2ccco2)c(Cl)c1 [Cpd 245, 5-[3-chloro-4-(furan-2-ylmethoxy)-phenyl]-4-oxo-4,5-dihydro-3H-1-thia-3,5,6,8-tetraaza-acenaphthylene-2-carboxylic acid (4-morpholin-4-ylmethyl-phenyl)-amide] | 24 | 48 | 227 | 48.7 | 
4 | O=C(Nc1ccc(CN2CCC(F)CC2)cc1)c1sc2ncnc3c2c1NC(=O)N3c1ccc(Oc2ccccc2)cc1 [Cpd 250, 4-oxo-5-(4-phenoxy-phenyl)-4,5-dihydro-3H-1-thia-3,5,6,8-tetraaza-acenaphthylene-2-carboxylic acid [4-(4-fluoro-piperidin-1-ylmethyl)-phenyl]-amide] | 37 | 26 | 33 | 68.9 | 
5 | O=C(Nc1ccc(CN2CCC(F)(F)CC2)cc1)c1sc2ncnc3c2c1NC(=O)N3c1ccc(Oc2ccccc2)cc1 [Cpd 263, 4-oxo-5-(4-phenoxy-phenyl)-4,5-dihydro-3H-1-thia-3,5,6,8-tetraaza-acenaphthylene-2-carboxylic acid [4-(4,4-difluoro-piperidin-1-ylmethyl)-phenyl]-amide] |  | 523 |  | 18.1 | inhibition at 2 µM ([1]; test concentration of 2 μM, compounds without an IC50, read-out: EGFR inhibition in percent): 83%

Now from value to compound, other results behind:

Row | IC50 [1] [nM] | IC50 [2] [nM] | IC50 [6] [nM] | SMILES | inhibition in vivo at 100 mg/kg [8] [%] | further results
6 | 9 |  |  | O=C(Nc1ccc(CN2CCCCC2)cc1)c1sc2ncnc3c2c1NC(=O)N3c1ccc(F)c(Cl)c1 [Cpd 3, 5-(3-chloro-4-fluoro-phenyl)-4-oxo-4,5-dihydro-3H-1-thia-3,5,6,8-tetraaza-acenaphthylene-2-carboxylic acid (4-piperidin-1-ylmethyl-phenyl)-amide] |  | inhibition at 1 µM [2]: 59%; IC50 [3]: 9580 nM; IC50 [4]: 42600 nM; IC50 [5]: 9720 nM
7 | 22 | 12 | 47 | COc1cc(NC(=O)c2sc3ncnc4c3c2NC(=O)N4c2ccc(Oc3ccccc3)cc2)ccc1CN1CCOCC1 [Cpd 176, 4-oxo-5-(4-phenoxy-phenyl)-4,5-dihydro-3H-1-thia-3,5,6,8-tetraaza-acenaphthylene-2-carboxylic acid (3-methoxy-4-morpholin-4-ylmethyl-phenyl)-amide] |  | 
8 | 17 | 9 | 9 | O=C(Nc1ccc(CN2CCC(O)CC2)cc1)c1sc2ncnc3c2c1NC(=O)N3c1ccc(Oc2ccccc2)cc1 [Cpd 233, 4-oxo-5-(4-phenoxy-phenyl)-4,5-dihydro-3H-1-thia-3,5,6,8-tetraaza-acenaphthylene-2-carboxylic acid [4-(4-hydroxy-piperidin-1-ylmethyl)-phenyl]-amide] | 38.3 | percent inhibition A431 ([7]; 100 mg/kg): 2.2%
9 | 18 | 11 |  | COC1CCN(Cc2ccc(NC(=O)c3sc4ncnc5c4c3NC(=O)N5c3ccc(Oc4ccccc4)cc3)cc2)CC1 [Cpd 261, 4-oxo-5-(4-phenoxy-phenyl)-4,5-dihydro-3H-1-thia-3,5,6,8-tetraaza-acenaphthylene-2-carboxylic acid [4-(4-methoxy-piperidin-1-ylmethyl)-phenyl]-amide] | 75.4 | percent inhibition A431 ([7]; 10 mg/kg): 44%; percent inhibition A431 ([7]; 30 mg/kg): 54.1%; percent inhibition A431 ([7]; 100 mg/kg): 86.1% and 80.1%; inhibition in vivo at 25 mg/kg ([8]; 25 mg/kg): 69.6%; inhibition in vivo at 50 mg/kg ([8]; 50 mg/kg): 71%; percent inhibition BT474 [9]: 98%
